According to patent US9006241B2, “Pyrimidine derivatives” (Noviga Research AB, priority 2011, dated 2015):

What was measured:
Type in all cases: cell-based
[1] = tested on: CCRF-CEM cancer cells - leukemia; experiment: Fluorometric Microculture Cytotoxicity Assay (FMCA), CCRF-CEM; settings: Homo sapiens, 72 h incubation
Description: (§1) The Fluorometric Microculture Cytotoxicity Assay, FMCA (Larsson, R., et al.; Anticancer Res, 1989, 9, 1111-1119), is a three day non-clonogenic microplate-based cell viability assay used for measurement of the cytotoxic and/or cytostatic effect of compounds in vitro (Lindhagen, E. et al.; Nat. Protoc., 2008, 3, 1364-1369). FMCA represents a valuable method to measure cytotoxicity in a number of cell types, both cell lines and primary cells from patients (Larsson, R., et al.; Int. J. Cancer, 1992, 50, 177-185; Fridborg, H., et al.; Eur. J. Cancer, 1999. 35, 424-432; Dhar, S., et al.; Br. J. Cancer, 1996, 74, 888-896).
(§2) FMCA is based on the principle that fluorescein diacetate (FDA) is converted to the fluorescent probe fluorescein by esterases in the plasma membranes of living cells. For experiments, 96 or 384-well microplates are prepared with compounds and stored at −70° C. until use. Cells are then seeded into the drug-prepared plates and placed in an incubator for 72 h. On the last day of incubation, the plates are washed and a buffer containing FDA is added and incubated with the cells for 45 minutes. Finally the fluorescence per well is measured in a fluorometer and a Survival Index % (SI) for each compound-treated well is calculated with the equation: Compound-treated cells minus blank divided by control cells minus blank. A high SI-value indicates a large percentage of living cells and vice versa.
In subsequent experiments, compounds were tested, along with a number of approved cancer drugs (dasatinib, pazopanib, sorafenib, and sunitinib) as described above. Initially, the acute lymphoblastic leukemia cell line CCRF-CEM was used throughout. In the assay plates, medium was added to six empty wells (blank wells) and wells were filled with PBS and cell suspension and served as control wells. SI-values were then calculated for each compound-treated well as described above. All experiments were conducted twice and a new batch of plates was prepared for each experiment.
(§3) For dose-response experiments, 384-well plates were prepared as follows:
(§4) Compounds of the invention as well comparative kinase inhibitors sorafenib sunitinib, dasatinib, pazopanib and a reference compound disclosed in WO 2009/071535 (compound #107) were diluted with PBS to a concentration ten-times higher than the desired starting concentration. Then, a Biomek 2000 liquid handling system was employed to serially dilute the compounds in a deep-well 384-well plate. From this plate, assay plates containing 5 μl compound per well were prepared with the Biomek 2000. Certain compounds precipitated when diluted with PBS, and these compounds were therefore prepared in a 96-well plate manually as described above using culture medium RPMI 1640 instead of PBS.
(§5) The compounds were also tested at five concentrations, with five times serial dilution on the following cell types: CCRF-CEM, hTERT-RPE1 (normal retinal epithelial cells), hRPTEpiC (normal renal cells), and peripheral blood mononuclear cells (PBMC). Each experiment was performed three times, except for PBMC and hRPTEpiC, which were performed twice. SI-values were calculated, graphs were plotted using GraphPadPrism 5.0 (GraphPad Software Inc. La Jolla, Calif.) and IC50-values for each cell type and compound were determined from the curves.

[2] = tested on: MDA-MB-231 (breast cancer); experiment: FMCA, MDA-MB-231; settings: Homo sapiens, MDA-MB-231 breast cancer cells
Description: as §1, §2, §3, §4, §5
(§6) The compounds of the invention were also tested on further cancer cell lines related to breast cancer (MDA-MB-231; see e.g. Cailleau, R., et al.; J. Natl. Cancer Inst., 1974, 53, 661-674), teniposide-resistant leukemia (CEM/VM1 see e.g. Danks, M., et al.; Cancer Res., 1987, 47, 1297-1301), leukemia (HL-60; see e.g. Collins, S., et al.; Nature, 1977, 270, 347-349), doxorubicin-resistant lung cancer (H69AR; see e.g. Mirski, S., et al.; Cancer Res., 1987, 47, 2594-2598), myeloma (RPMI 8226; see e.g. Matsuoka, Y., et al.; Proc. Soc. Exp. Biol. Med., 1967, 125, 1246-1250), doxorubicin-resistant myeloma (8226/Dox40; see e.g. Dalton, W., et al.; Blood, 1989, 15, 747-752), lymphoma (U-937, see e.g. Sundström, C., et al.; Int. […]

[3] = tested on: CEM/VM1 (teniposide-resistant leukemia); experiment: FMCA, CEM/VM1; settings: Homo sapiens, CEM/VM1 teniposide-resistant leukemia cells
Description: as §1, §2, §3, §4, §5
as §6, with “Int. J. Cancer, 1976, 17, 565-577), vincristin-resistant lymphoma (U-937-vcr; see e.g. Botling, J., et al.; Int. J. Cancer, 1994, 58, 269-274), ovarian cancer (A2780; see e.g. Hamilton, T., et al.; Semin. Oncol., 1984, 11, 285-298), doxorubicin-resistant ovarian cancer (A2780/Adr), cisplatin-resistant ovarian cancer (A2780/Cis; see e.g. Behrens, B., et al. Cancer Res. 1987, 47, 414-418), pancreatic cancer (PANC-1, BxPC-3, and MIA PaCa-2; see e.g. Lieber, M., et al.; Int. J. Cancer, 1975, 15, 741-747; Loor, R., et al.; Clin. Lab.” for “Int.”

[4] = tested on: HL-60 (leukemia); experiment: FMCA, HL-60; settings: Homo sapiens, HL-60 leukemia cells
Description: as §1, §2, §3, §4, §5, §6

[5] = tested on: H69AR (doxorubicin-resistant lung cancer); experiment: FMCA, H69AR; settings: Homo sapiens, H69AR doxorubicin-resistant lung cancer cells
Description: as §1, §2, §3, §4, §5
as §6, with “Int. J. Cancer, 1976, 17, 565-577), vincristin-resistant lymphoma (U-937-vcr; see e.g. Botling, J., et al.; Int. J. Cancer, 1994, 58, 269-274), ovarian cancer (A2780; see e.g. Hamilton, T., et al.; Semin. Oncol., 1984, 11, 285-298), doxorubicin-resistant ovarian cancer (A2780/Adr), cisplatin-resistant ovarian cancer (A2780/Cis; see e.g. Behrens, B., et al. Cancer Res. 1987, 47, 414-418), pancreatic cancer (PANC-1, BxPC-3, and MIA PaCa-2; see e.g. Lieber, M., et al.; Int. J. Cancer, 1975, 15, 741-747; Loor, R., et al.; Clin. Lab.” for “Int.”

[6] = tested on: RPMI 8226 (myeloma); experiment: FMCA, RPMI 8226; settings: Homo sapiens, RPMI 8226 myeloma cells
Description: as §1, §2, §3, §4, §5
as §6, with “Int. J. Cancer, 1976, 17, 565-577), vincristin-resistant lymphoma (U-937-vcr; see e.g. Botling, J., et al.; Int. J. Cancer, 1994, 58, 269-274), ovarian cancer (A2780; see e.g. Hamilton, T., et al.; Semin. Oncol., 1984, 11, 285-298), doxorubicin-resistant ovarian cancer (A2780/Adr), cisplatin-resistant ovarian cancer (A2780/Cis; see e.g. Behrens, B., et al. Cancer Res. 1987, 47, 414-418), pancreatic cancer (PANC-1, BxPC-3, and MIA PaCa-2; see e.g. Lieber, M., et al.; Int. J. Cancer, 1975, 15, 741-747; Loor, R., et al.; Clin. Lab.” for “Int.”

[7] = tested on: 8226/Dox40 (doxorubicin-resistant myeloma); experiment: FMCA, 8226/Dox40; settings: 8226/Dox40 doxorubicin-resistant myeloma cells
Description: as §1, §2, §3, §4, §5
as §6, with “Int. J. Cancer, 1976, 17, 565-577), vincristin-resistant lymphoma (U-937-vcr; see e.g. Botling, J., et al.; Int. J. Cancer, 1994, 58, 269-274), ovarian cancer (A2780; see e.g. Hamilton, T., et al.; Semin. Oncol., 1984, 11, 285-298), doxorubicin-resistant ovarian cancer (A2780/Adr), cisplatin-resistant ovarian cancer (A2780/Cis; see e.g. Behrens, B., et al. Cancer Res. 1987, 47, 414-418), pancreatic cancer (PANC-1, BxPC-3, and MIA PaCa-2; see e.g. Lieber, M., et al.; Int. J. Cancer, 1975, 15, 741-747; Loor, R., et al.; Clin. Lab.” for “Int.”

[8] = tested on: U-937 (lymphoma); experiment: FMCA, U-937; settings: Homo sapiens, U-937 lymphoma cells
Description: as §1, §2, §3, §4, §5
as §6, with “Int. J. Cancer, 1976, 17, 565-577), vincristin-resistant lymphoma (U-937-vcr; see e.g. Botling, J., et al.; Int. J. Cancer, 1994, 58, 269-274), ovarian cancer (A2780; see e.g. Hamilton, T., et al.; Semin. Oncol., 1984, 11, 285-298), doxorubicin-resistant ovarian cancer (A2780/Adr), cisplatin-resistant ovarian cancer (A2780/Cis; see e.g. Behrens, B., et al. Cancer Res. 1987, 47, 414-418), pancreatic cancer (PANC-1, BxPC-3, and MIA PaCa-2; see e.g. Lieber, M., et al.; Int. J. Cancer, 1975, 15, 741-747; Loor, R., et al.; Clin. Lab.” for “Int.”

[9] = tested on: U-937-vcr (vincristin-resistant lymphoma); experiment: FMCA, U-937-vcr; settings: U-937-vcr vincristin-resistant lymphoma cells
Description: as §1, §2, §3, §4, §5
as §6, with “Int. J. Cancer, 1976, 17, 565-577), vincristin-resistant lymphoma (U-937-vcr; see e.g. Botling, J., et al.; Int. J. Cancer, 1994, 58, 269-274), ovarian cancer (A2780; see e.g. Hamilton, T., et al.; Semin. Oncol., 1984, 11, 285-298), doxorubicin-resistant ovarian cancer (A2780/Adr), cisplatin-resistant ovarian cancer (A2780/Cis; see e.g. Behrens, B., et al. Cancer Res. 1987, 47, 414-418), pancreatic cancer (PANC-1, BxPC-3, and MIA PaCa-2; see e.g. Lieber, M., et al.; Int. J. Cancer, 1975, 15, 741-747; Loor, R., et al.; Clin. Lab.” for “Int.”

[10] = tested on: A2780 (ovarian cancer); experiment: FMCA, A2780; settings: Homo sapiens, A2780 ovarian cancer cells
Description: as §1, §2, §3, §4, §5
as §6, with “Int. J. Cancer, 1976, 17, 565-577), vincristin-resistant lymphoma (U-937-vcr; see e.g. Botling, J., et al.; Int. J. Cancer, 1994, 58, 269-274), ovarian cancer (A2780; see e.g. Hamilton, T., et al.; Semin. Oncol., 1984, 11, 285-298), doxorubicin-resistant ovarian cancer (A2780/Adr), cisplatin-resistant ovarian cancer (A2780/Cis; see e.g. Behrens, B., et al. Cancer Res. 1987, 47, 414-418), pancreatic cancer (PANC-1, BxPC-3, and MIA PaCa-2; see e.g. Lieber, M., et al.; Int. J. Cancer, 1975, 15, 741-747; Loor, R., et al.; Clin. Lab.” for “Int.”

[11] = tested on: A2780/Adr (doxorubicin-resistant ovarian cancer); experiment: FMCA, A2780/Adr; settings: A2780/Adr doxorubicin-resistant ovarian cancer cells
Description: as §1, §2, §3, §4, §5
as §6, with “Int. J. Cancer, 1976, 17, 565-577), vincristin-resistant lymphoma (U-937-vcr; see e.g. Botling, J., et al.; Int. J. Cancer, 1994, 58, 269-274), ovarian cancer (A2780; see e.g. Hamilton, T., et al.; Semin. Oncol., 1984, 11, 285-298), doxorubicin-resistant ovarian cancer (A2780/Adr), cisplatin-resistant ovarian cancer (A2780/Cis; see e.g. Behrens, B., et al. Cancer Res. 1987, 47, 414-418), pancreatic cancer (PANC-1, BxPC-3, and MIA PaCa-2; see e.g. Lieber, M., et al.; Int. J. Cancer, 1975, 15, 741-747; Loor, R., et al.; Clin. Lab.” for “Int.”

[12] = tested on: A2780/Cis (cisplatin-resistant ovarian cancer); experiment: FMCA, A2780/Cis; settings: A2780cis, A2780/Cis cisplatin-resistant ovarian cancer cells
Description: as §1, §2, §3, §4, §5
as §6, with “Int. J. Cancer, 1976, 17, 565-577), vincristin-resistant lymphoma (U-937-vcr; see e.g. Botling, J., et al.; Int. J. Cancer, 1994, 58, 269-274), ovarian cancer (A2780; see e.g. Hamilton, T., et al.; Semin. Oncol., 1984, 11, 285-298), doxorubicin-resistant ovarian cancer (A2780/Adr), cisplatin-resistant ovarian cancer (A2780/Cis; see e.g. Behrens, B., et al. Cancer Res. 1987, 47, 414-418), pancreatic cancer (PANC-1, BxPC-3, and MIA PaCa-2; see e.g. Lieber, M., et al.; Int. J. Cancer, 1975, 15, 741-747; Loor, R., et al.; Clin. Lab.” for “Int.”

[13] = tested on: BxPC-3 (pancreatic cancer); experiment: FMCA, BxPC-3; settings: Homo sapiens, BxPC-3 pancreatic cancer cells
Description: as §1, §2, §3, §4, §5, §6

[14] = tested on: PANC-1 (pancreatic cancer); experiment: FMCA, PANC-1; settings: Homo sapiens, PANC-1 pancreatic cancer cells
Description: as §1, §2, §3, §4, §5, §6

[15] = tested on: MIA PaCa-2 (pancreatic cancer); experiment: FMCA, MIA PaCa-2; settings: Homo sapiens, MIA PaCa-2 pancreatic cancer cells
Description: as §1, §2, §3, §4, §5, §6

[16] = tested on: PC-3 (prostate cancer); experiment: FMCA, PC-3; settings: PC-3 prostate cancer cells
Description: as §1, §2, §3, §4, §5, §6

## COc1ccc2[nH]cc(CCNc3nccc(Nc4ccc5[nH]c(CO)cc5c4)n3)c2c1 [Example 15, (5-{2-[2-(5-methoxy-1H-indol-3-yl)ethylamino]pyrimidin-4-ylamino}-1H-indol-2-yl)methanol]
[1]
  EC50: 27 nM
[2]
  EC50: 150 nM
[3]
  EC50: 71 nM
[4]
  EC50: 31 nM
[5]
  EC50: 120 nM
[6]
  EC50: 1400 nM
[7]
  EC50: 4300 nM
[8]
  EC50: 37 nM
[9]
  EC50: 69 nM
[10]
  EC50: 55 nM
[11]
  EC50: 980 nM
[12]
  EC50: 96 nM
[13]
  EC50: 120 nM
[14]
  EC50: 1400 nM
[15]
  EC50: 58 nM
[16]
  EC50: 310 nM
